The OPERA property sets (Mansouri et al. 2018)
In brackets after ≈: the same amount, converted by molar mass.

settings: not given

Question: For `O=S(=O)(CCCl)CCOCCS(=O)(=O)CCCl`, which solubility is on record?
Answer: 11.5 mM (≈ 3750 µg/mL)

Question: With `CCCC(=O)OCCOCCOCCOC(=O)CCC` as the compound, how does the solubility read?
Answer: 27.6 mM (≈ 8000 µg/mL)

Question: With `CCN(CC)CCSCCN(CC)CC` as the compound, how does the solubility read?
Answer: 4.3 mM (≈ 1000 µg/mL)

Question: For `CC(C)CCOCC(O)COCCC(C)C`, which solubility is on record?
Answer: 43 mM (≈ 10000 µg/mL)

Question: Which solubility does the source give for `CC(C)(S(C)(=O)=O)S(C)(=O)=O` here?
Answer: 35.4 mM (≈ 7100 µg/mL)

Question: For `CC(C)OC(=O)C(C)(C)O`, which solubility is on record?
Answer: 1030 mM (≈ 150000 µg/mL)

Question: With `CCOC(=O)N[C@@H](C=O)[C@@H](O)[C@H](O)[C@H](O)CO` as the compound, how does the solubility read?
Answer: 1300 mM (≈ 327000 µg/mL)

Question: For `O=C(O)C(=O)C(c1ccccc1)c1ccccc1`, which solubility is on record?
Answer: 4.62 mM (≈ 1110 µg/mL)

same assay, conditions: 20 °C

Question: Which solubility does the source give for `CC(O)(CCl)CCl` here?
Answer: 657 mM (≈ 94000 µg/mL)

Question: Which solubility does the source give for `OCC1=C[C@@H](O)[C@@H]2C=CO[C@@H](OC3OC(CO)C(O)C(O)C3O)[C@H]12` (stereo partly specified) here?
Answer: 1030 mM (≈ 356000 µg/mL)

Question: Which solubility does the source give for `Oc1cncc2cccnc12` here?
Answer: 22 mM (≈ 3220 µg/mL)

Question: With `Sc1nnc(S)s1` as the compound, how does the solubility read?
Answer: 176 mM (≈ 26400 µg/mL)

Question: For `O=C(NCCO)C(=O)NCCO`, which solubility is on record?
Answer: 772 mM (≈ 136000 µg/mL)

Question: Which solubility does the source give for `O=C1C=Cc2ccccc2C1=NO` here?
Answer: 1.16 mM (≈ 200 µg/mL)

Question: Which solubility does the source give for `C=CCCN=C=S` here?
Answer: 4.06 mM (≈ 460 µg/mL)

Question: With `CCOC(C)CCO` (stereo unspecified) as the compound, how does the solubility read?
Answer: 423 mM (≈ 50000 µg/mL)

Question: For `Cc1ncc2nccnc2n1`, which solubility is on record?
Answer: 760 mM (≈ 111000 µg/mL)

Question: For `CC(C)(OC1CCCCC1)C(=O)O`, which solubility is on record?
Answer: 83.2 mM (≈ 15500 µg/mL)

Question: With `Cn1c(=O)cnc2cncnc21` as the compound, how does the solubility read?
Answer: 123 mM (≈ 20000 µg/mL)

Question: Which solubility does the source give for `O=[N+]([O-])Cc1ccc2ccccc2n1` here?
Answer: 8.82 mM (≈ 1660 µg/mL)

Question: For `O=C(O)c1cc(Cl)ccc1O`, which solubility is on record?
Answer: 57.9 mM (≈ 10000 µg/mL)

Question: Which solubility does the source give for `CC=CCC1(C)C(=O)NC(=O)N(C)C1=O` (stereo unspecified) here?
Answer: 28.5 mM (≈ 6000 µg/mL)

Question: Which solubility does the source give for `Oc1cccc2ccnnc12` here?
Answer: 3.9 mM (≈ 570 µg/mL)

Question: With `NC(=O)C(Br)(Br)Br` as the compound, how does the solubility read?
Answer: 54.1 mM (≈ 16000 µg/mL)

Question: With `CCCCCS` as the compound, how does the solubility read?
Answer: 1.5 mM (≈ 156 µg/mL)

Question: For `O=C(O)CC(O)C(=O)O` (stereo unspecified), which solubility is on record?
Answer: 5790 mM (≈ 777000 µg/mL)

Question: With `Oc1cc2ccccc2cc1C1=NCCN1` as the compound, how does the solubility read?
Answer: 0.499 mM (≈ 106 µg/mL)

same assay, conditions: 21 °C

Question: Which solubility does the source give for `NC(N)=N/C(N)=N/c1ccc2ccccc2c1` here?
Answer: 2.82 mM (≈ 641 µg/mL)

same assay, conditions: 22 °C

Question: For `COc1cc2nccnc2c(N)c1OC`, which solubility is on record?
Answer: 19.5 mM (≈ 4000 µg/mL)

Question: For `C[C@](N)(C(=O)O)c1ccccc1`, which solubility is on record?
Answer: 291 mM (≈ 48000 µg/mL)

same assay, conditions: 23 °C

Question: For `N#CCC(=O)Nc1ccccc1`, which solubility is on record?
Answer: 1.87 mM (≈ 300 µg/mL)

Question: Which solubility does the source give for `CCC(C(=O)O)C(CC)C(=O)O` (stereo unspecified) here?
Answer: 69.5 mM (≈ 12100 µg/mL)

same assay, conditions: 24 °C

Question: With `O=Cc1cccc(C(=O)O)c1O` as the compound, how does the solubility read?
Answer: 3.61 mM (≈ 600 µg/mL)

same assay, conditions: 25 °C

Question: With `CCCCCCCCCCCCNC(=O)c1cccnc1` as the compound, how does the solubility read?
Answer: 0.62 mM (≈ 180 µg/mL)

Question: For `Cc1ccc(S(C)(=O)=O)cc1`, which solubility is on record?
Answer: 10.3 mM (≈ 1750 µg/mL)

Question: For `CCCCCCCC(C(=O)O)C(=O)O`, which solubility is on record?
Answer: 9.1 mM (≈ 1840 µg/mL)

Question: With `CCCCCCCCCC(C(=O)O)C(=O)O` as the compound, how does the solubility read?
Answer: 0.499 mM (≈ 115 µg/mL)

Question: Which solubility does the source give for `C[C@H](O)C(F)(F)F` here?
Answer: 2040 mM (≈ 233000 µg/mL)

Question: Which solubility does the source give for `ON=C1CCCCCCCCC1=NO` here?
Answer: 2.62 mM (≈ 520 µg/mL)

Question: Which solubility does the source give for `O=[N+]([O-])c1ccc(O)c([N+](=O)[O-])c1-c1ccccc1` here?
Answer: 0.192 mM (≈ 50 µg/mL)

Question: With `CSc1ncccn1` as the compound, how does the solubility read?
Answer: 396 mM (≈ 50000 µg/mL)

Question: For `Cc1cc(O)c(Cc2ccccc2)c(C)c1Cl`, which solubility is on record?
Answer: 0.05 mM (≈ 12.3 µg/mL)

Question: With `Cc1ccc(/N=N/c2cc(C)ccc2N)cc1` as the compound, how does the solubility read?
Answer: 0.125 mM (≈ 28.2 µg/mL)

Question: With `CCCCCCCCCCCCCCCCNC(=O)C(C)O` (stereo unspecified) as the compound, how does the solubility read?
Answer: 0.223 mM (≈ 70 µg/mL)

Question: For `Nc1ccc2c(c1)C(=O)OC2`, which solubility is on record?
Answer: 9.09 mM (≈ 1360 µg/mL)

Question: For `Cn1cnc2c1c(=O)n(CC(=O)O)c(=O)n2C`, which solubility is on record?
Answer: 42 mM (≈ 10000 µg/mL)

Question: For `Cc1cc(Cl)cc(C)c1O`, which solubility is on record?
Answer: 21.1 mM (≈ 3300 µg/mL)

Question: With `CC(C)C[C@H](NC=O)C(=O)O` (racemic) as the compound, how does the solubility read?
Answer: 185 mM (≈ 29500 µg/mL)

Question: With `CC(C)C[C@H](N)C(=O)N[C@H](CCC(N)=O)C(=O)O` as the compound, how does the solubility read?
Answer: 27 mM (≈ 7000 µg/mL)

Question: Which solubility does the source give for `CCCCCCC(C/C=C\CCCCCCCC(=O)O)OS(=O)(=O)O` (stereo unspecified) here?
Answer: 264 mM (≈ 100000 µg/mL)

Question: With `CC(C)CCCCCO` as the compound, how does the solubility read?
Answer: 4.97 mM (≈ 647 µg/mL)

Question: Which solubility does the source give for `CCC(C)(C)C1CCC(=NO)C(=NO)C1` (stereo unspecified) here?
Answer: 0.108 mM (≈ 23 µg/mL)

Question: Which solubility does the source give for `CCCCOC(=O)c1cccnc1` here?
Answer: 14.6 mM (≈ 2610 µg/mL)

Question: Which solubility does the source give for `CC1OC(=O)c2cc([N+](=O)[O-])ccc21` (stereo unspecified) here?
Answer: 2.42 mM (≈ 468 µg/mL)

Question: For `O=C(O)CSCC(=O)O`, which solubility is on record?
Answer: 2660 mM (≈ 400000 µg/mL)

Question: For `CCCOP(=O)(OCC)OCCC`, which solubility is on record?
Answer: 105 mM (≈ 22000 µg/mL)

Question: With `CN1c2ccccc2C(O)(c2ccccc2)c2ccccc21` as the compound, how does the solubility read?
Answer: 0.125 mM (≈ 35.9 µg/mL)

Question: For `Cc1c(Cl)c(O)c(Cl)c(Cl)c1Cl`, which solubility is on record?
Answer: 0.025 mM (≈ 6.15 µg/mL)

Question: For `CC1CCC(=NO)C(=NO)C1` (stereo unspecified), which solubility is on record?
Answer: 21.8 mM (≈ 3400 µg/mL)

Question: For `C=CCOC(=O)C(C)OC(=O)C(C)O` (stereo unspecified), which solubility is on record?
Answer: 208 mM (≈ 42000 µg/mL)

Question: For `Cc1ccc(S(=O)(=O)N(Cl)Cl)cc1`, which solubility is on record?
Answer: 0.342 mM (≈ 82.1 µg/mL)

Question: For `O=C(CCl)NC(=O)CCl`, which solubility is on record?
Answer: 5.88 mM (≈ 1000 µg/mL)

same assay, conditions: 26 °C

Question: With `C=CCc1ccc(O)c(O)c1` as the compound, how does the solubility read?
Answer: 166 mM (≈ 25000 µg/mL)

same assay, conditions: 30 °C

Question: With `CCn1cnc2c1c(=O)n(C)c(=O)n2C` as the compound, how does the solubility read?
Answer: 176 mM (≈ 36700 µg/mL)

Question: Which solubility does the source give for `COC(C)C(C)Cl` (stereo unspecified) here?
Answer: 10 mM (≈ 1230 µg/mL)

Question: For `O=S(=O)(CCCl)CCS(=O)(=O)CCCl`, which solubility is on record?
Answer: 35.6 mM (≈ 10100 µg/mL)
